# Source: ChEMBL document CHEMBL2157985, “Development of programmable small DNA-binding molecules with epigenetic activity for induction of core pluripotency genes” (Bioorg Med Chem, 2012)
# Activity calls are given as the source filed them. The calls are words filed in the database; no cut-off is given here.
# Tests used:
# MEF [1] = test: Induction of Oct3/4 gene expression in C57BL/6 MEF at 100 nM after 24 hrs by quantitative RT-PCR analysis relative to control; assay type: functional, Mus musculus; details: for Activity: Mus musculus
# MEF [2] = test: Upregulation of c-Myc gene expression in C57BL/6 MEF at 100 nM after 24 hrs by quantitative RT-PCR analysis relative to control; assay type: functional, Mus musculus; details: for Activity: Mus musculus
# [3] = Inhibition of HDAC
# MEF [4] = test: Upregulation of Nanog gene expression in C57BL/6 MEF at 100 nM after 24 hrs by quantitative RT-PCR analysis relative to control; assay type: functional, Mus musculus; details: for Activity: Mus musculus
# MEF [5] = test: Upregulation of Klf4 gene expression in C57BL/6 MEF at 100 nM after 24 hrs by quantitative RT-PCR analysis relative to control; assay type: functional, Mus musculus; details: for Activity: Mus musculus
# MEF [6] = test: Cytotoxicity against C57BL/6 MEF at 100 nM by WST-8 assay; assay type: cell-based; details: mouse, 0.1 µM
# MEF [7] = test: Upregulation of Sox2 gene expression in C57BL/6 MEF at 100 nM after 24 hrs by quantitative RT-PCR analysis relative to control; assay type: functional, cell-based; details: Mus musculus
Structure (SMILES),HDAC inhibition activity [3],fold change (FC) (MEF [1]),fold change (FC) (MEF [2]),fold change (FC) (MEF [4]),fold change (FC) (MEF [5]),Activity (MEF [6]),Activity (MEF [7]),Activity (MEF [1]),Activity (MEF [4]),Activity (MEF [5]),Activity (MEF [2])
CC(=O)Nc1cn(C)c(C(=O)Nc2cc(C(=O)Nc3cc(C(=O)Nc4cc(C(=O)NCCCC(=O)Nc5cc(C(=O)Nc6cc(C(=O)Nc7cc(C(=O)Nc8cc(C(=O)NCCCN(C)CCCNC(=O)c9ccc(NC(=O)CCCCCCC(=O)NO)cc9)n(C)c8)n(C)c7)n(C)c6)n(C)c5)n(C)c4)n(C)c3)n(C)c2)n1,Active,2,1.5,2,2.2,Non-toxic,Active,–,–,–,–
CONC(=O)CCCCCCC(=O)Nc1ccc(C(=O)NCCC(=O)NCCC(=O)Nc2cn(C)c(C(=O)Nc3cc(C(=O)Nc4cc(C(=O)Nc5cc(C(=O)NCCCC(=O)Nc6cc(C(=O)Nc7cc(C(=O)Nc8cc(C(=O)Nc9cc(C(=O)NCCCN(C)C)n(C)c9)n(C)c8)n(C)c7)n(C)c6)n(C)c5)n(C)c4)n(C)c3)n2)cc1,–,–,–,–,–,–,Active,inactive,inactive,–,–
O=C(CCCCCCC(=O)Nc1ccccc1)NO,–,–,–,–,–,–,Active,inactive,inactive,–,–

# More lines, main results first:
HDAC inhibition activity [3],Structure (SMILES),fold change (FC) (MEF [1]),fold change (FC) (MEF [2]),fold change (FC) (MEF [4]),fold change (FC) (MEF [5]),Activity (MEF [6]),Activity (MEF [7]),Activity (MEF [1]),Activity (MEF [4]),Activity (MEF [5]),Activity (MEF [2])
Active,CN(C)CCCNC(=O)CCNC(=O)c1cc(NC(=O)c2cc(NC(=O)c3cc(NC(=O)c4cc(NC(=O)CCCNC(=O)c5cc(NC(=O)c6cc(NC(=O)c7cc(NC(=O)c8nc(NC(=O)CCNC(=O)CCNC(=O)c9ccc(NC(=O)CCCCCCC(=O)NO)cc9)cn8C)cn7C)cn6C)cn5C)cn4C)cn3C)cn2C)cn1C,2,1.8,2,–,Non-toxic,Active,–,–,Active,–
Active,CN(C)CCCNC(=O)c1cc(NC(=O)c2cc(NC(=O)c3cc(NC(=O)c4cc(NC(=O)CCCNC(=O)c5cc(NC(=O)c6cc(NC(=O)c7cc(NC(=O)c8nc(NC(=O)CCNC(=O)c9ccc(NC(=O)CCCCCCC(=O)NO)cc9)cn8C)cn7C)cn6C)cn5C)cn4C)cn3C)cn2C)cn1C,2,–,2,1.5,Non-toxic,Active,–,–,–,inactive
Active,CN(C)CCCNC(=O)c1cc(NC(=O)c2cc(NC(=O)c3cc(NC(=O)c4cc(NC(=O)CCCNC(=O)c5cc(NC(=O)c6cc(NC(=O)c7cc(NC(=O)c8nc(NC(=O)CCNC(=O)CCNC(=O)CCNC(=O)c9ccc(NC(=O)CCCCCCC(=O)NO)cc9)cn8C)cn7C)cn6C)cn5C)cn4C)cn3C)cn2C)cn1C,4.5,1.5,–,1.5,Non-toxic,Active,–,Active,–,–
Active,CN(C)CCCNC(=O)c1cc(NC(=O)c2cc(NC(=O)c3cc(NC(=O)c4cc(NC(=O)CCCNC(=O)c5cc(NC(=O)c6cc(NC(=O)c7cc(NC(=O)c8nc(NC(=O)CCNC(=O)CCNC(=O)c9ccc(NC(=O)CCCCCCC(=O)NO)cc9)cn8C)cn7C)cn6C)cn5C)cn4C)cn3C)cn2C)cn1C,3.1,–,2,–,Non-toxic,Active,–,–,inactive,inactive
Active,CN(C)CCCNC(=O)c1cc(NC(=O)c2cc(NC(=O)c3cc(NC(=O)c4cc(NC(=O)CCCNC(=O)c5cc(NC(=O)c6cc(NC(=O)c7cc(NC(=O)c8nc(NC(=O)CCNC(=O)CCNC(=O)CCNC(=O)CCNC(=O)c9ccc(NC(=O)CCCCCCC(=O)NO)cc9)cn8C)cn7C)cn6C)cn5C)cn4C)cn3C)cn2C)cn1C,3.6,1.5,2,1.5,Non-toxic,Active,–,–,–,–
